# Tests used:
# human κ opioid receptor [1] = target: T1, human κ opioid receptor (Homo sapiens, UniProt P41145); test: κ-opioid receptor radioligand ([3H]-U69,593) dose-displacement binding assay, HEK-293 or CHO cells; design: expressed in transfected cells; host or cells: HEK-293 cells (in-house prep)
# Protocol: Membranes from recombinant HEK-293 cells expressing the human K opioid receptor (cloned in house) were prepared by lysing cells in ice cold hypotonic buffer (2.5 mM MgCl2, 50 mM HEPES, pH 7.4) (10 mL/10 cm dish) followed by homogenization with a tissue grinder/Teflon pestle. Membranes were collected by centrifugation at 30,000×g for 15 min at 4° C. and pellets were resuspended in hypotonic buffer to a final concentration of 1-3 mg/mL. Protein concentrations were determined using the BioRad protein assay reagent with bovine serum albumen as standard. Aliquots of κ receptor membranes were stored at −80° C.
# Radioligand dose displacement assays used 0.4 nM [^3H]-U69,593 (GE Healthcare, Piscataway, N.J.; 40 Ci/mmole) with 15 μg membrane protein (recombinant K opioid receptor expressed in HEK 293 cells; in-house prep) in a final volume of 200 μl binding buffer (5% DMSO, 50 mM Trizma base, pH 7.4). Non-specific binding was determined in the presence of 10 μM unlabeled naloxone or U69,593. All reactions were performed in 96-well polypropylene plates for 1 hr at a temperature of about 25° C. Binding reactions were terminated by rapid filtration onto 96-well Unifilter GF/C filter plates (Perkin Elmer, Shelton, Conn.) presoaked in 0.5% polyethylenimine (Sigma). Harvesting was performed using a 96-well tissue harvester (Perkin Elmer, Shelton, Conn.) followed by five filtration washes with 200 μl ice-cold binding buffer. Filter plates were subsequently dried at 50° C. for 1-2 hours. Fifty μl/well scintillation cocktail (Perkin Elmer, Shelton, Conn.) was added and plates were counted in a Packard Top-Count for 1 min/well.
# (§1) In TABLE 1, binding affinity of certain Compounds of the Invention to the μ-, and κ-opioid receptors in HEK-293 or CHO cells was determined as described above.
# μ-opioid receptor [2] = target: T2, μ-opioid receptor (Homo sapiens, UniProt P35372); test: μ-opioid receptor [35S]GTPγS functional assay, U-2 OS cells; assay type: biochemical; design: host or cells: U-2 OS cells; settings: for Emax: U2-OS cells, relative to DAMGO
# Summary of the method: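 U-2 OS membranes expressing recombinant human μ-receptor (0.026 mg/mL) were incubated with compound, […], saponin and [35S]GTPγS 0.20 nM in HEPES/NaCl/MgCl2 buffer pH 7.4 for 30 min at about 25° C. Filter-bound radioactivity gave sigmoidal fits for EC50; Emax is relative to DAMGO.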
# human κ opioid receptor [3] = target: T1, human κ opioid receptor; test: κ-opioid receptor [35S]GTPγS functional assay, HEK-293 or CHO cells; assay type: biochemical; design: expressed in transfected cells; settings: for Emax: HEK-293 or CHO cells, relative to U69,593
# Protocol: Membranes from recombinant HEK-293 cells, CHO or U-2 OS cells expressing the recombinant human K opioid receptor (K) were prepared by lysing cells in ice cold hypotonic buffer (2.5 mM MgCl2, 50 mM HEPES, pH 7.4) (10 mL/10 cm dish) followed by homogenization with a tissue grinder/Teflon pestle. Functional [^35S]GTPγS binding assays were conducted as follows. K opioid receptor membrane solution was prepared by sequentially adding final concentrations of 0.026 μg/μl κ membrane protein (in-house), 10 μg/mL saponin, 3 μM GDP and 0.20 nM [^35S]GTPγS to binding buffer (100 mM NaCl, 10 mM MgCl2, 20 mM HEPES, pH 7.4) on ice. The prepared membrane solution (190 μl/well) was transferred to 96-shallow well polypropylene plates containing 10 μl of 20× concentrated stock solutions of agonist prepared in DMSO. Plates were incubated for 30 min at a temperature of about 25° C. with shaking. Reactions were terminated by rapid filtration onto 96-well Unifilter GF/B filter plates (Perkin Elmer, Shelton, Conn.) using a 96-well tissue harvester (Packard) and followed by three filtration washes with 200 μl ice-cold binding buffer (10 mM NaH2PO4, 10 mM Na2HPO4, pH 7.4). Filter plates were subsequently dried at 50° C. for 2-3 hours. Fifty μl/well scintillation cocktail (Perkin Elmer, Shelton, Conn.) was added and plates were counted in a Packard Top-Count for 1 min/well.
# κ GTP EC50 is the concentration of a compound providing 50% of the maximal response for the compound at a κ receptor.
# κ GTP Emax (%) is the maximal effect elicited by a compound relative to the effect elicited by U69,593.
# In TABLE 2, activity response of certain Compounds of the Invention at the μ- and κ-opioid receptors using HEK-293 or CHO cells was determined as described above for functional assays.
# human κ opioid receptor [4] = target: T1, human κ opioid receptor; test: κ-opioid receptor [35S]GTPγS functional assay, U-2 OS cells; assay type: biochemical; design: expressed in transfected cells; host or cells: U-2 OS cells (in-house membranes); settings: for Emax: U2-OS cells, relative to U69,593
# Summary of the method: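 Membranes from U-2 OS cells expressing human κ receptor (0.026 μg/μl protein) were incubated with agonist, 10 μg/mL saponin, 3 μM GDP and 0.20 nM [35S]GTPγS in pH 7.4 HEPES buffer for 30 min at about 25 °C. Bound radioactivity was measured after filtration. EC50 was taken at half-maximal response; Emax is relative to U69,593.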
# μ-opioid receptor [5] = target: T2, μ-opioid receptor; test: μ-opioid receptor [35S]GTPγS functional assay, HEK-293 or CHO cells; assay type: biochemical; settings: for Emax: HEK-293 or CHO cells, relative to DAMGO
# Summary of the method: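 Agonist-stimulated [35S]GTPγS binding to recombinant μ-receptor membranes (HEK-293 or CHO) with 0.20 nM [35S]GTPγS, […] and saponin, pH 7.4, 30 min at about 25 °C, then filtration and scintillation counting. EC50 from sigmoidal fits; Emax relative to DAMGO.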
# μ-opioid receptor [6] = target: T2, μ-opioid receptor; test: μ-opioid receptor radioligand ([3H]-diprenorphine) dose-displacement binding assay, HEK-293 or CHO cells
# Protocol: Radioligand dose-displacement binding assays for μ-opioid receptors used 0.3 nM [^3H]-diprenorphine (Perkin Elmer, Shelton, Conn.), with […] membrane protein/well in a final volume of 500 μl binding buffer (10 mM MgCl2, 1 mM EDTA, 5% DMSO, 50 mM HEPES, pH 7.4). Reactions were carried out in the absence or presence of increasing concentrations of unlabeled naloxone. All reactions were conducted in 96-deep well polypropylene plates for 2 hr at room temperature. Binding reactions were terminated by rapid filtration onto 96-well Unifilter GF/C filter plates (Perkin Elmer, Shelton, Conn.), presoaked in 0.5% polyethylenimine using a 96-well tissue harvester (Perkin Elmer, Shelton, Conn.) followed by performing three filtration washes with 500 μl of ice-cold binding buffer. Filter plates were subsequently dried at 50° C. for 2-3 hours. BetaScint scintillation cocktail (Perkin Elmer, Shelton, Conn.) was added (50 l/well), and plates were counted using a Packard Top-Count for 1 min/well. The data were analyzed using the one-site competition curve fitting functions in GraphPad PRISM™ v. 3.0 or higher (San Diego, Calif.), or an in-house function for one-site competition curve-fitting.
# as §1
# T1 sequence (P41145 whole entry): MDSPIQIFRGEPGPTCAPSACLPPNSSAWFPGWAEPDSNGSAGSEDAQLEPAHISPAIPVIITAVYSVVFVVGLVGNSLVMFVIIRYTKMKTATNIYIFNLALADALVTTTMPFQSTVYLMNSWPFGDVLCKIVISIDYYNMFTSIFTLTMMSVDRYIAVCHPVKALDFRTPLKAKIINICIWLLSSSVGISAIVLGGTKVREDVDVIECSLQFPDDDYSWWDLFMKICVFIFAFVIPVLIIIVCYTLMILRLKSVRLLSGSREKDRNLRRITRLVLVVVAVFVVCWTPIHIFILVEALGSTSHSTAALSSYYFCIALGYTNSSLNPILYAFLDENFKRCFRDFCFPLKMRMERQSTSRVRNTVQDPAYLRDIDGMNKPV
# T2 sequence (P35372 whole entry, species assumed): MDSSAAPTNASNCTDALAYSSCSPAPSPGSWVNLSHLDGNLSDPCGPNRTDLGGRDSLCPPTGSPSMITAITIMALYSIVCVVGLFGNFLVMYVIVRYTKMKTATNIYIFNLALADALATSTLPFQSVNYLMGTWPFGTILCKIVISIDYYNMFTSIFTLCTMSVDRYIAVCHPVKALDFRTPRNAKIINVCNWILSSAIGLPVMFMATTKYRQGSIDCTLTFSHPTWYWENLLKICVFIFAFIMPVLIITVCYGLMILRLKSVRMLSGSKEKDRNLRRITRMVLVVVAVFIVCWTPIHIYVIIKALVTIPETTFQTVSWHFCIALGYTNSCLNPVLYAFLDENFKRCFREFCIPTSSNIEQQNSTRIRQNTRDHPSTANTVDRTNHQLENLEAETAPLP
SMILES,Ki (human κ opioid receptor [1]) [µM],EC50 (μ-opioid receptor [2]) [µM],Emax (μ-opioid receptor [2]) [%],EC50 (human κ opioid receptor [3]) [µM],EC50 (human κ opioid receptor [4]) [µM],Emax (human κ opioid receptor [4]) [%],EC50 (μ-opioid receptor [5]) [µM],Emax (μ-opioid receptor [5]) [%],Ki (μ-opioid receptor [6]) [µM],Emax (human κ opioid receptor [3]) [%]
"COc1ccc2c(c1)[C@]13CCN(CC4CC4)[C@H](C2)[C@]1(O)CC[C@@H](CC(=O)O)C3 [Compound 9, 2-((4bS,6R,8aS,9R)-11-(cyclopropylmethyl)-8a-hydroxy-3-methoxy-6,7,8,8a,9,10-hexahydro-5H-9,4b-(epiminoethano)phenanthren-6-yl)acetic acid]",0.597 ± 0.163,0.574 ± 0.0872,36.3 ± 0.88,0.597 ± 0.163,–,–,–,–,–,–
"CCC(=O)N[C@H]1C[C@@]2(O)[C@H]3Cc4ccc(O)cc4[C@@]2(CCN3CC2CC2)C[C@H]1O [Compound 56, N-((4bR,6R,7S,8aS,9R)-11-(cyclopropylmethyl)-3,6,8a-trihydroxy-6,7,8,8a,9,10-hexahydro-5H-9,4b-(epiminoethano)phenanthren-7-yl)propionamide]",0.00719 ± 0.00087,0.095 ± 0.0164,19.3 ± 1.45,0.0718 ± 0.00876,0.0293 ± 0.00434,105 ± 3.38,> 20,1,0.0542 ± 0.0125,53 ± 0.58
"CC(C)C(=O)N[C@H]1C[C@@]2(O)[C@H]3Cc4ccc(O)cc4[C@@]2(CCN3CC2CC2)CC1O (stereo partly drawn) [Compound 50, N-((4bR,7S,8aS,9R)-11-(cyclopropylmethyl)-3,6,8a-trihydroxy-6,7,8,8a,9,10-hexahydro-5H-9,4b-(epiminoethano)phenanthren-7-yl)isobutyramide]",–,0.113 ± 0.0608,12.8 ± 0.85,0.0292 ± 0.00221,0.0473 ± 0.0037,91.7 ± 1.33,> 20,1,–,45.7 ± 2.19
"CC(=O)N[C@H]1C[C@@]2(O)[C@H]3Cc4ccc(O)cc4[C@@]2(CCN3CC2CC2)C[C@H]1O [Compound 55, N-((4bR,6R,7S,8aS,9R)-11-(cyclopropylmethyl)-3,6,8a-trihydroxy-6,7,8,8a,9,10-hexahydro-5H-9,4b-(epiminoethano)phenanthren-7-yl)acetamide]",0.0548 ± 0.00883,> 20,4,0.203 ± 0.0202,0.194 ± 0.0544,77.7 ± 5.49,> 20,1,0.201 ± 0.0621,13.3 ± 0.88
"CCC(=O)N[C@H]1C[C@@]2(O)[C@H]3Cc4ccc(O)cc4[C@@]2(CCN3CC2CC2)C[C@@H]1O [Compound 57, N-((4bR,6S,7S,8aS,9R)-11-(cyclopropylmethyl)-3,6,8a-trihydroxy-6,7,8,8a,9,10-hexahydro-5H-9,4b-(epiminoethano)phenanthren-7-yl)propionamide]",0.0167 ± 0.00261,0.0777 ± 0.0103,9 ± 0.58,0.0261 ± 0.00687,0.0331 ± 0.00353,113 ± 5.86,> 20,1.5,0.0449 ± 0.00771,37.2 ± 3.07
"CC(C)CN[C@@H]1C[C@@]2(O)[C@H]3Cc4ccc(O)cc4[C@@]2(CCN3CC2CC2)C[C@@H]1O [Compound 34, (4bR,6S,7R,8aS,9R)-11-(cyclopropylmethyl)-7-(isobutylamino)-5,6,7,8,9,10-hexahydro-8aH-9,4b-(epiminoethano)phenanthrene-3,6,8a-triol]",–,0.00384 ± 0.00153,20.3 ± 1.76,0.00055 ± 0.00023,0.00081 ± 0.00012,71 ± 1.53,> 20,1,–,32 ± 1.35
"COc1ccc2c(c1)[C@]13CCN(CC4CC4)[C@H](C2)[C@]1(O)CC[C@H](O)C3 [Compound 4, (4bR,6S,8aS,9R)-11-(cyclopropylmethyl)-3-methoxy-5,6,7,8,9,10-hexahydro-8aH-9,4b-(epiminoethano)phenanthrene-6,8a-diol]",0.172 ± 0.0128,–,–,7.86,–,–,6.14,33.7 ± 2.96,4.59 ± 0.356,55.8 ± 5.88
"NCCCCN[C@@H]1CC[C@@]2(O)[C@H]3Cc4ccc(O)cc4[C@@]2(CCN3CC2CC2)C1 [Compound 14, (4bR,6R,8aS,9R)-6-((4-aminobutyl)amino)-11-(cyclopropylmethyl)-5,6,7,8,9,10-hexahydro-8aH-9,4b-(epiminoethano)phenanthrene-3,8a-diol]",0.00056 ± 5.2e-05,0.0856 ± 0.00331,74.3 ± 2.19,–,0.00547 ± 0.0003,112 ± 5.13,> 20,8.67 ± 2.96,0.124 ± 0.0435,–
"NCCN[C@@H]1CC[C@@]2(O)[C@H]3Cc4ccc(O)cc4[C@@]2(CCN3CC2CC2)C1 [Compound 11, (4bR,6R,8aS,9R)-6-((2-aminoethyl)amino)-11-(cyclopropylmethyl)-5,6,7,8,9,10-hexahydro-8aH-9,4b-(epiminoethano)phenanthrene-3,8a-diol]",0.00029 ± 4.9e-05,0.0379 ± 0.012,70 ± 8.08,–,0.00275 ± 0.00048,119 ± 0.58,> 20,6.33 ± 1.67,0.071 ± 0.0281,–
"CC(C)CCCC(=O)N[C@H]1C[C@@]2(O)[C@H]3Cc4ccc(O)cc4[C@@]2(CCN3CC2CC2)CC1O (stereo partly drawn) [Compound 63, N-((4bR,7S,8aS,9R)-11-(cyclopropylmethyl)-3,6,8a-trihydroxy-6,7,8,8a,9,10-hexahydro-5H-9,4b-(epiminoethano)phenanthren-7-yl)-5-methylhexanamide]",0.0115 ± 0.00097,0.0632 ± 0.00831,58.7 ± 1.33,0.023 ± 0.00432,0.0388 ± 0.00782,84.3 ± 1.67,0.0812 ± 0.00825,23.3 ± 1.33,–,21.2 ± 0.44
